In general, MIC refers to the smallest concentration in the dilution series that meets the test's criterion for growth inhibition. Broadly, the IC50 is the concentration needed to halve the response being measured. In general, melting point refers to the temperature, or range, at which the solid turns liquid.

Converted amounts (≈) assume the structure as drawn. Where two headings read alike, the source gives them in different places.

The values below come from paper PMC9608620, “Synthesis and Identification of New N,N-Disubstituted Thiourea, and Thiazolidinone Scaffolds Based on Quinolone Moiety as Urease Inhibitor” (Molecules, 2022).

The test system of data set [1] is Proteus mirabilis (P. mirabilis) strain. Description: Antibacterial screening, cup-plate diffusion method. It is filed as cell-based. Conditions: urease-positive clinical isolate from urine, number in brackets, read-out: MIC P. mirabilis (given in brackets). How it is done:
The Proteus mirabilis (P. mirabilis) strain was isolated from the urine of patients suffering from urinary tract infections. […] The test was performed using the cup-plate diffusion method

The target in data set [2] is T1, urease (Jack bean urease) (Canavalia ensiformis, UniProt P07374). Description: biochemical. It is filed as biochemical. The protocol:
In vitro screening and inhibitory studies on urease (Jack bean urease) were determined using the colored Berthelot phenols method, which measures the liberation of ammonia from the reaction. Briefly, the assay mixture containing 1 unit of the enzyme was added to 650 µL of buffer solution (50 mmol phosphate buffer Ph 6.7, 400 mmol sodium salicylate, 10 mmol sodium nitroprusside, and 2 mmol EDTA/L) and mixed with 10 µL of different concentration 0.1–100 Mm of the tested compounds in DMF as a solvent. […] After 15 min incubation at room temperature, 10 µL of 50 mg/L urea solution was added. The mixture was incubated for 0.5 h in a water bath at 37 °C to allow the hydrolysis process.
After complete urea hydrolysis and ammonia liberation, the reaction was stopped by adding 200 µL of the hypochlorite reagent (150 mmol/L sodium hydroxide, 140 mm/L sodium hypochlorite). The liberated ammonia was allowed to complex with the hypochlorite and salicylate for 25 min at 30 °C. The absorbance was measured at 578 nm using a UV/VIS Spectrophotometer (Optizen POP, 5U4608, Daejeon, Korea), and experiments were performed in triplicate in a final volume of 1 mL. […] The percentage inhibition was calculated as the difference of absorbance values with and without the test compounds. The concentration that provokes an inhibition halfway between the minimum and maximum response of each compound (relative IC50) was determined by monitoring the inhibition effect of various concentrations of compounds in the assay.

Data set [3] concerns the target T1, urease (Jack bean urease). Conditions: read-out: IC50 (µM) Urease; lead compound of the design rationale; cited from earlier work.
[4] abbreviates: Jack bean urease, triplicate, relative IC50, read-out: IC50 (µM) Urease.

T1 sequence (P07374 whole entry, looked up): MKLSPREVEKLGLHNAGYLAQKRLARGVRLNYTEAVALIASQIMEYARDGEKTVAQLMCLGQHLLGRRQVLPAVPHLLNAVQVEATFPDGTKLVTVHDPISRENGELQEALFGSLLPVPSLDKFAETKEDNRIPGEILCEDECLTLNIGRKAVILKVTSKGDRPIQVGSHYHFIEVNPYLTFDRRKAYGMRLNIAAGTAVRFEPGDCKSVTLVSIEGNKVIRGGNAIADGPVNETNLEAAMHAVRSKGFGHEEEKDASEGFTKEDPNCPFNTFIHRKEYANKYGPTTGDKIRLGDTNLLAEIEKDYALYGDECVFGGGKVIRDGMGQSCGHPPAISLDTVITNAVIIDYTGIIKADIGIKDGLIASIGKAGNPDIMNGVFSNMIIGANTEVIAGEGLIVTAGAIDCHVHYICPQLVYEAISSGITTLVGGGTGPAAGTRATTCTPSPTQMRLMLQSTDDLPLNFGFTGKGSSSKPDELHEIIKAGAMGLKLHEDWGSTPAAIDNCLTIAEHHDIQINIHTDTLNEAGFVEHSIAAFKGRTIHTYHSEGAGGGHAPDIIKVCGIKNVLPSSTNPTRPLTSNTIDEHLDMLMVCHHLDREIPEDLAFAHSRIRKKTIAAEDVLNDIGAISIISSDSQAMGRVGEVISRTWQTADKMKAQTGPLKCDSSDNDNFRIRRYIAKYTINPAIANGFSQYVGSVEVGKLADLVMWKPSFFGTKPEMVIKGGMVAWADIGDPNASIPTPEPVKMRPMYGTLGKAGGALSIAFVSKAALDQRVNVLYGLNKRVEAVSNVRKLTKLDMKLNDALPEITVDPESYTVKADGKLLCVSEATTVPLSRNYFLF

`C=CCNC(=S)NNC(=O)COc1cc(=O)[nH]c2ccc(C)cc12` [Compound 5d, N-Allyl-2-(2-((6-methyl-2-oxo-1,2-dihydroquinolin-4-yl)oxy)acetyl)hydrazine-1-carbothioamide] displayed a melting point of 174 to 176 °C. The MIC in data set [1] came out at 100 µg/mL (≈ 289 µM). This compound yielded an IC50 in data set [2] of 5.29 ± 0.36 µM.
The compound `C=CCN1C(=O)/C(=C\C(=O)OC)SC1=NNC(=O)COc1cc(=O)[nH]c2ccccc12` [Compound 7j, (2E)-Methyl 2-(3-allyl-4-oxo-2-(2-(2-((2-oxo-1,2-dihydroquinolin-4-yl)oxy)acetyl)-hydrazono)thiazolidin-5-ylidene)acetate] displayed a melting point of 244 to 246 °C. Also, the MIC in data set [1] came to 200 µg/mL (≈ 452 µM). The midpoint of inhibition in data set [2], the IC50, lay at 51.4 ± 0.91 µM.
Take `CCOC(=O)/C=C1/S/C(=N\NC(=O)COc2cc(=O)[nH]c3ccc(C)cc23)N(Cc2ccccc2)C1=O` [Compound 7h, (E)-Ethyl 2-((Z)-3-benzyl-2-(2-(2-((6-methyl-2-oxo-1,2-dihydroquinolin-4-yl)oxy)acetyl)-hydrazono)-4-oxothiazolidin-5-ylidene)acetate]: the melting point fell in the range of 233 to 235 °C. Further, the minimal inhibitory concentration (MIC) in data set [1] was found to be 200 µg/mL (≈ 384 µM). It took 31.3 ± 0.36 µM to reach half-maximal inhibition in data set [2] (IC50).
With `Cc1ccc2[nH]c(=O)cc(OCC(=O)NNC(=S)NCc3ccccc3)c2c1` [Compound 5e, N-Benzyl-2-(2-((6-methyl-2-oxo-1,2-dihydroquinolin-4-yl)oxy)acetyl)hydrazinecarbothioamide], the melting point was 183 to 185 °C. Also, the MIC in data set [1] was found to be 100 µg/mL (≈ 252 µM). Also, 5.6 ± 0.84 µM corresponded to half-maximal inhibition in data set [2] (IC50).
`C=CCN1C(=O)/C(=C\C(=O)OCC)S/C1=N\NC(=O)COc1cc(=O)[nH]c2ccc(C)cc12` [Compound 7e, (E)-Ethyl 2-((Z)-3-allyl-2-(2-(2-((6-methyl-2-oxo-1,2-dihydroquinolin-4-yl)oxy)acetyl)-hydrazono)-4-oxothiazolidin-5-ylidene)acetate] showed a melting point of 239 to 241 °C. Also, the minimum inhibitory concentration (MIC) in data set [1] was determined as 200 µg/mL (≈ 425 µM). The same compound returned an IC50 in data set [2] of 29.8 ± 1.31 µM.
In turn, `COC(=O)/C=C1/SC(=NNC(=O)COc2cc(=O)n(C)c3ccccc23)N(c2ccccc2)C1=O` [Compound 7c, (2E)-Methyl 2-(2-(2-(2-((1-methyl-2-oxo-1,2-dihydroquinolin-4-yl)oxy)acetyl)-hydrazono)-4-oxo-3-phenylthiazolidin-5-ylidene)acetate] showed a melting point of 229 to 231 °C. The MIC in data set [1] is 200 µg/mL (≈ 406 µM). Also, the IC50 in data set [2] is 18.8 ± 1.72 µM.
For `COC(=O)/C=C1/SC(=NNC(=O)COc2cc(=O)[nH]c3ccccc23)N(Cc2ccccc2)C1=O` [Compound 7k, (2E)-Methyl 2-(3-benzyl-4-oxo-2-(2-(2-((2-oxo-1,2-dihydroquinolin-4-yl)oxy)acetyl)-hydrazono)thiazolidin-5-ylidene)acetate] the same measures were 251 to 253 °C, 200 µg/mL (≈ 406 µM) and 49.45 ± 0.09 µM.
With `Cn1c(=O)cc(OCC(=O)NNC(=S)Nc2ccccc2)c2ccccc21` [Compound 5c, 2-(2-((1-Methyl-2-oxo-1,2-dihydroquinolin-4-yl)oxy)acetyl)-N-phenylhydrazinecarbothioamide], the melting point lay within 161 to 163 °C. Besides, the MIC in data set [1] came to 100 µg/mL (≈ 261 µM). The compound further returned a half-maximal inhibitory concentration (IC50) in data set [2] of 1.83 ± 0.79 µM. Moreover, the “fold more potent than thiourea and acetohydroxamic acid (urease inhibition)” value in data set [2] (relative to the reference inhibitors) is given as “approximately 12 fold”.
For the compound `CC(=O)NO` [Acetohydroxamic acid, reference compound], the half-inhibitory concentration (IC50) in data set [2] (setting [4]) was determined as 21 ± 0.94 µM.
`C=CCNC(=S)NNC(=O)COc1cc(=O)n(C)c2ccccc12` [Compound 5a, N-Allyl-2-(2-((1-methyl-2-oxo-1,2-dihydroquinolin-4-yl)oxy)acetyl)hydrazinecarbo-thioamide] showed a melting point of 177 to 179 °C. Also, the MIC in data set [1] turned out to be 100 µg/mL (≈ 289 µM). For the same compound, the concentration for half-maximal inhibition (IC50) in data set [2] turned out to be 2.48 ± 0.18 µM.
Consider `C=CCNC(=S)NNC(=O)COc1cc(=O)[nH]c2ccccc12` [Compound 5f, N-Allyl-2-(2-((2-oxo-1,2-dihydroquinolin-4-yl)oxy)acetyl)hydrazinecarbothioamide], for which the melting point fell in the range of 169 to 171 °C. The MIC in data set [1] amounted to 100 µg/mL (≈ 301 µM). The same compound displayed an IC50 in data set [2] of 9.45 ± 0.08 µM.
As for `NC(N)=S` [Thiourea], the IC50 in data set [2] (setting [4]) is 22.8 ± 1.31 µM.
Consider `C=CCN1C(=O)/C(=C\C(=O)OC)SC1=NNC(=O)COc1cc(=O)n(C)c2ccccc12` [Compound 7a, (2E)-Methyl 2-(3-allyl-2-(2-(2-((1-methyl-2-oxo-1,2-dihydroquinolin-4-yl)oxy)acetyl)-hydrazono)-4-oxothiazolidin-5-ylidene)acetate], for which the melting point fell in the range of 233 to 235 °C. The MIC in data set [1] is 200 µg/mL (≈ 438 µM). This compound also had an IC50 in data set [2] of 36.28 ± 0.1 µM.
For `Cn1c(=O)cc(OCC(=O)NNC(=S)NCc2ccccc2)c2ccccc21` [Compound 5b, N-Benzyl-2-(2-((1-methyl-2-oxo-1,2-dihydroquinolin-4-yl)oxy)acetyl)hydrazinecarbothioamide] the same measures were 190 to 192 °C, 100 µg/mL (≈ 252 µM) and 2.58 ± 0.1 µM.
For the compound `CCNC(=S)NNC(=O)Cn1c(Cc2ccc(F)cc2)nc2ccccc2c1=O` [lead I, N-ethyl-2-(2-(2-(4-fluorobenzyl)-4-oxoquinazolin-3(4H)-yl)acetyl)hydrazinecarbothioamide], the IC50 in data set [3] is 6.02 ± 0.27 µM.
Regarding `CCOC(=O)/C=C1/S/C(=N\NC(=O)COc2cc(=O)[nH]c3ccccc23)N(Cc2ccccc2)C1=O` [Compound 7l, (E)-Ethyl 2-((Z)-3-benzyl-4-oxo-2-(2-(2-((2-oxo-1,2-dihydroquinolin-4-yl)oxy)acetyl)-hydrazono)thiazolidin-5-ylidene)acetate], the melting point was 249 to 251 °C. Also, the MIC in data set [1] stood at 200 µg/mL (≈ 395 µM). This compound also registered a concentration for half-maximal inhibition (IC50) in data set [2] of 37.21 ± 0.28 µM.
The corresponding values for `COC(=O)/C=C1/SC(=NNC(=O)COc2cc(=O)[nH]c3ccc(C)cc23)N(Cc2ccccc2)C1=O` [Compound 7g, (2E)-Methyl 2-(3-benzyl-2-(2-(2-((6-methyl-2-oxo-1,2-dihydroquinolin-4-yl)oxy)acetyl)-hydrazono)-4-oxothiazolidin-5-ylidene)acetate] are 241 to 243 °C, 200 µg/mL (≈ 395 µM) and 45.43 ± 0.19 µM.
For `O=C(COc1cc(=O)[nH]c2ccccc12)NNC(=S)NCc1ccccc1` [Compound 5g, N-Benzyl-2-(2-((2-oxo-1,2-dihydroquinolin-4-yl)oxy)acetyl)hydrazinecarbothioamide] the same measures were 199 to 201 °C, 100 µg/mL (≈ 261 µM) and 11.2 ± 0.27 µM.
The corresponding values for `CCOC(=O)/C=C1/SC(=NNC(=O)COc2cc(=O)n(C)c3ccccc23)N(c2ccccc2)C1=O` [Compound 7d, (2E)-Ethyl 2-(2-(2-(2-((1-methyl-2-oxo-1,2-dihydroquinolin-4-yl)oxy)acetyl)-hydrazono)-4-oxo-3-phenylthiazolidin-5-ylidene)acetate] are 223 to 225 °C, 200 µg/mL (≈ 395 µM) and 26.8 ± 1.11 µM.
Compound `CCOC(=O)/C=C1/S/C(=N\NC(=O)COc2cc(=O)n(C)c3ccccc23)N(Cc2ccccc2)C1=O` [Compound 7b] showed a melting point of 243 to 245 °C. For the same compound, in data set [1], the MIC was 200 µg/mL (≈ 384 µM). Moreover, the IC50 in data set [2] was 24 ± 0.88 µM.
For `C=CCN1C(=O)/C(=C\C(=O)OC)S/C1=N\NC(=O)COc1cc(=O)[nH]c2ccc(C)cc12` [Compound 7f, (E)-Methyl 2-((Z)-3-allyl-2-(2-(2-((6-methyl-2-oxo-1,2-dihydroquinolin-4-yl)oxy)-acetyl)hydrazono)-4-oxothiazolidin-5-ylidene)acetate] the same measures were 232 to 233 °C, 200 µg/mL (≈ 438 µM) and 31.58 ± 0.15 µM.
Turning to `C=CCN1C(=O)/C(=C\C(=O)OCC)S/C1=N\NC(=O)COc1cc(=O)[nH]c2ccccc12` [Compound 7i, (2E)-Ethyl 2-(3-allyl-4-oxo-2-(2-(2-((2-oxo-1,2-dihydroquinolin-4-yl)oxy)acetyl)hydra-zono)thiazolidin-5-ylidene)acetate], the MIC in data set [1] worked out at 200 µg/mL (≈ 438 µM). This compound also registered a concentration for half-maximal inhibition (IC50) in data set [2] of 42.8 ± 1.51 µM.
